# Test results published in article PMC5817008 (Analytical biochemistry, 2017).
# Where two headings read alike, the source gives them in different places.
# Key:
# FtIspD [1] = format: biochemical, Francisella tularensis
# FtIspD [2] = format: biochemical, Francisella tularensis; remark: listed apart in the source
# [3] = tested on: Francisella tularensis subsp. novicida Utah 112; assay: microbe, parasite or virus in culture; format: cell-based; conditions: for EC50: read-out: EC50, growth inhibition
# Y. pestis IspC (YpIspC) = Y. pestis IspC (YpIspC) (Yersinia pestis, UniProt Q8ZH62); assay: biochemical; conditions: for % Residual Activity: 100 µM; for remaining activity at 100 µM: read-out: % Residual Activity
# Chain of Y. pestis IspC (YpIspC) (Q8ZH62 whole entry, looked up): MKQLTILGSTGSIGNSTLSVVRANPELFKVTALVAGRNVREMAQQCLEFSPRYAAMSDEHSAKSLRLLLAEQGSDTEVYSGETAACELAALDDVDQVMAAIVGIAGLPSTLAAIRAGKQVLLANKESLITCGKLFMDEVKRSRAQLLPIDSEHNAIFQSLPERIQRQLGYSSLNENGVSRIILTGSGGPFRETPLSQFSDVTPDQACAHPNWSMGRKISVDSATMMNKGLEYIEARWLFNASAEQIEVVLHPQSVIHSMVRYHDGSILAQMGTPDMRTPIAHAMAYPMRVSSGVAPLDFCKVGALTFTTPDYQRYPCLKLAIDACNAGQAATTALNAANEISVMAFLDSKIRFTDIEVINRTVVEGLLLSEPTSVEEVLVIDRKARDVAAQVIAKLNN
# [4] = tested on: Yersinia pestis subsp. A1122; assay: microbe, parasite or virus in culture; format: cell-based
# [5] = literature search; cited from earlier work
# [6] = tested on: Francisella tularensis subsp. novicida Utah 112; conditions: read-out: EC50, growth inhibition; cited from earlier work
# [7] = tested on: Yersinia pestis subsp. A1122; conditions: read-out: EC50, growth inhibition; cited from earlier work
# E.coli IspD (EcIspD) = target: T1, E.coli IspD (EcIspD) (Escherichia coli, UniProt Q46893); assay: Secondary screen, cuvette-based assay with EcIspD; format: biochemical
# T1 sequence (Q46893 1-236): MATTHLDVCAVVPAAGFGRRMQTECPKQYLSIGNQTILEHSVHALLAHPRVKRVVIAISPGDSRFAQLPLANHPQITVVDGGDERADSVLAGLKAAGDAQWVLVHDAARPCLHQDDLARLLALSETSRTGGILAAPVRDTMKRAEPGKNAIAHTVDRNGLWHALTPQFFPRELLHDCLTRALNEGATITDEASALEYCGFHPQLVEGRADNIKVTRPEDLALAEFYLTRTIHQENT
# [8] = tested on: F. tularensis IspD (FtIspD); format: biochemical, Francisella tularensis
# JNK = conditions: cited from earlier work
# PI3K = conditions: competitive inhibitor; cited from earlier work
# CYP34A = conditions: direct competitive inhibitor; cited from earlier work
# YpIspC [9] = target: T2, YpIspC (Yersinia pestis, UniProt Q8ZH62); format: biochemical
# T2 sequence (Q8ZH62 whole entry, looked up): as the sequence (Q8ZH62 whole entry, looked up) above
# YpIspC [10] = target: T2, YpIspC; format: biochemical; remark: listed apart in the source
# [11] = Yersinia pestis, SUBSP.A1122, read-out: EC50, growth inhibition
smiles,measurement,setting,value
NC(Cc1cc(O)c(O)cc1O)C(=O)O (racemic) [6-hydroxy-DL-DOPA],mode of inhibition with respect to CTP,FtIspD [1],competitive
same,mode of inhibition with respect to MEP,FtIspD [1],noncompetitive
same,attenuation of inhibition in the presence of detergent,FtIspD [2],did not attenuate inhibition
same,antibacterial activity in the quaternary screen,[3],failed to show significant antimicrobial activity
O=C(O)C1=CC(=C(c2ccc(O)c(C(=O)O)c2)c2ccc(O)c(C(=O)O)c2)C=CC1=O [Aurintricarboxylic acid],antibacterial activity in the quaternary screen,[3],failed to show significant antimicrobial activity
O.Oc1cc(O)c2c(c1)O[C@H](c1ccc(O)c(O)c1)[C@@H](O)C2 [Catechin],% Residual Activity,Y. pestis IspC (YpIspC),96.65%
"Cc1cc(N)c2ccccc2[n+]1CCCCCCCCCC[n+]1c(C)cc(N)c2ccccc21.O.[Cl-].[Cl-] [Dequalinium chloride, 1,1′-Decamethylenebis(4-aminoquinaldinium) dichloride hydrate]",hit identification in the primary screen with YpIspC,Y. pestis IspC (YpIspC),identified as inhibitors of IspC
same,EC50,[4]; [11],> 100 µM
same,forming aggregates in solution,[5],forming aggregates in solution
same,antibacterial activity in the quaternary screen,[3],significantly inhibit bacterial growth
CC(=O)N(O)CCCP(=O)(O)O [FR900098],EC50,[6],23 µM
same,EC50,[7],29 µM
"O=C1Nc2ccc(I)cc2C1=Cc1cc(Br)c(O)c(Br)c1 [GW5074, 3-(3,5-Dibromo-4-hydroxybenzylidine-5-iodo-1,3-dihydro-indol-2-one)]",residual activity of EcIspD in the secondary screen,"E.coli IspD (EcIspD); secondary screen, 100 μM",47%
same,hit identification in the primary screen with FtIspD,[8],identified as inhibitors of FtIspD
same,antibacterial activity in the quaternary screen,[3],significantly inhibit bacterial growth
COc1cc(/C=C(\C#N)C(=O)c2ccc(O)c(O)c2)cc(I)c1O [I-OMe-Tyrphostin AG 538],antibacterial activity in the quaternary screen,[3],failed to show significant antimicrobial activity
O=C(Nc1cccc(C(=O)Nc2ccc(S(=O)(=O)O)c3cc(S(=O)(=O)O)cc(S(=O)(=O)O)c23)c1)Nc1cccc(C(=O)Nc2ccc(S(=O)(=O)O)c3cc(S(=O)(=O)O)cc(S(=O)(=O)O)c23)c1 [NF023],antibacterial activity in the quaternary screen,[3],failed to show significant antimicrobial activity
"CCCc1c(-c2ccc(O)cc2)nn(-c2ccc(O)cc2)c1-c1ccc(O)cc1 [PPT, 1,3,5-tris(4-hydroxyphenyl)-4-propyl-1H-pyrazole]",remaining activity at 100 µM,E.coli IspD (EcIspD); read-out: residual activity of EcIspD in the secondary screen,55%
same,hit identification in the primary screen with FtIspD,[8],identified as inhibitors of FtIspD
same,antibacterial activity in the quaternary screen,[3],significantly inhibit bacterial growth
O=c1c(O[C@@H]2O[C@H](CO)[C@H](O)[C@H](O)[C@H]2O)c(-c2ccc(O)c(O)c2)oc2cc(O)cc(O)c12 [Quercetin 3-D-Galactoside],% Residual Activity,Y. pestis IspC (YpIspC),76.779%
O=c1c(O[C@@H]2O[C@H](CO)[C@@H](O)[C@H](O)[C@H]2O)c(-c2ccc(O)c(O)c2)oc2cc(O)cc(O)c12 [Quercetin 3-β-D-glucoside],% Residual Activity,Y. pestis IspC (YpIspC),76.25%
O=c1c(O)c(-c2ccc(O)c(O)c2)oc2cc(O)cc(O)c12 [Quercetin],IC50,JNK,1 µM
same,Kd,PI3K,0.28 µM
same,remaining activity at 100 µM,Y. pestis IspC (YpIspC),4.83%
same,inhibition at 100 µM,Y. pestis IspC (YpIspC); read-out: inhibition of the catalytic activity of YpIspC,> 95%
same,EC50,[4]; [11],< 50 µM
same,EC50,"[4]; read-out: EC50, growth inhibition",29 µM
same,"FtIspD activity, % of the uninhibited control",[8],4%
same,forming aggregates in solution,[5],forming aggregates in solution
same,Ki,CYP34A,15.4 µM
same,residual growth,[3],less than 25%
same,EC50,[3]; Francisella tularensis,< 50 µM
same,EC50,[3],36 µM
C[C@@H]1O[C@@H](Oc2c(-c3ccc(O)c(O)c3)oc3cc(O)cc(O)c3c2=O)[C@H](O)[C@H](O)[C@H]1O [Quercitrin],remaining activity at 100 µM,Y. pestis IspC (YpIspC),78.2%
"CC(=O)c1c(O)c(C)c(O)c(Cc2c(O)c3c(c(C(=O)C=Cc4ccccc4)c2O)OC(C)(C)C=C3)c1O [Rottlerin, 3′-[(8-Cinnamoyl-5,7-dihydroxy-2,2-dimethyl-2H-1-benzopyran-6-yl)methyl]-2′,4′,6′-trihydroxy-5′-methylacetophenone]",residual FtIspD activity in the primary screen,[8],52%
same,forming aggregates in solution,[5],forming aggregates in solution
same,antibacterial activity in the quaternary screen,[3],significantly inhibit bacterial growth
"C[n+]1cc2c3c(ccc2c2ccc4cc5c(cc4c21)OCO5)OCO3 [Sanguinarine chloride, 13-Methyl-[1, 3]benzodioxolo[5,6-c]-1,3-dioxolo[4,5-i] phenanthridinium chloride]",aggregating / non-aggregating inhibitor,YpIspC [9],aggregating inhibitor
same,dependence of IC50 on enzyme concentration,YpIspC [9],decreases with a decrease in YpIspC concentration
same,antibacterial activity in the quaternary screen,[3],significantly inhibit bacterial growth
Cc1ccc(C(=O)Nc2ccc(S(=O)(=O)O)c3cc(S(=O)(=O)O)cc(S(=O)(=O)O)c23)cc1NC(=O)c1cccc(NC(=O)Nc2cccc(C(=O)Nc3cc(C(=O)Nc4ccc(S(=O)(=O)O)c5cc(S(=O)(=O)O)cc(S(=O)(=O)O)c45)ccc3C)c2)c1 [Suramin Hexasodium],attenuation of inhibition in the presence of detergent,YpIspC [10],did not attenuate inhibition
same,aggregating / non-aggregating inhibitor,YpIspC [9],non-aggregating
same,antibacterial activity in the quaternary screen,[3],failed to show significant antimicrobial activity
C[C@]12C=CC(=O)C=C1CC[C@@H]1C2=CC[C@]2(C)[C@@H](C(=O)CN3CCN(c4cc(N5CCCC5)nc(N5CCCC5)n4)CC3)CC[C@@H]12.O=C(O)/C=C\C(=O)O [U-74389G maleate],antibacterial activity in the quaternary screen,[3],failed to show significant antimicrobial activity
"COc1ccc2c(c[n+](C)c3c4cc5c(cc4ccc23)OCO5)c1OC.[Cl-] [chelerythrine chloride, 1,2-Dimethoxy-N-methyl(1,3) benzodioxolo(5,6-c)phenanthridinium chloride]",hit identification in the primary screen with YpIspC,Y. pestis IspC (YpIspC),identified as inhibitors of IspC
same,EC50,[4]; [11],> 100 µM
same,antibacterial activity in the quaternary screen,[3],significantly inhibit bacterial growth
